Results as given in US10738007B2, “Amide compounds as kinase inhibitors, compositions and methods of treatment” (TRANSLATIONAL DRUG DEVELOPMENT, LLC, priority 2016, dated 2020).

What was measured:
ROCK2 = ROCK2 (Homo sapiens (Human), UniProt O75116); test: ROCK2 kinase inhibition assay (peptide phosphorylation, LABCHIP 3000); assay type: biochemical; conditions: 7 μM ATP, 2.5 nM ROCK2, 3 hours at 25° C.
K562 cell line = test: Cell viability assay ([…]-GLO), K562; assay type: cell-based; conditions: K562 (does not express ITD-FLT3), 72 hours treatment
Protocol: Cell viability in the presence of varying concentrations of the above listed compounds at different time points was used to assess cytotoxicity and the effect of the compounds on cell proliferation.
Cell viability was measured by the […]-GlO® cell viability assay from Promega (Madison, Wis.). The […]-GlO Luminescent Cell Viability Assay is a homogeneous method to determine the number of viable cells in culture based on quantitation of the ATP present, which signals the presence of metabolically active cells. Following treatment, […]-GlO® is added to treatment wells and incubated at 37° C. Luminescence values were measured at using a Molecular Devices Spectramax microplate reader.
Cells were grown to 70% confluency, trypsinized, counted, and seeded in 96 well flat-bottom plates at a final concentration of 2.5×10^3-5×10^3 cells/well (Day 0). Cells were allowed to incubate in growth media for 24 hours. Treatment with the test agents or standard agents began on Day 1 and continued for 72 hours. At the 72-hour time point, treatment containing media was removed. Viable cell numbers were quantified by the […]-GLO® cell viability assay as described above. Results from these studies were used to calculate an IC50 value (concentration of drug that inhibits cell growth by 50 percent of control) for each compound.
For single agent and combination studies, data from each experiment was collected and expressed as % Cell Growth using the following calculation: % Cell Growth=(ftest/fvehicle)×100
Where ftest is the luminescence of the tested sample, and fvehicle is the luminescence of the vehicle in which the drug is dissolved. Dose response graphs and IC50 values were generated using Prism 6 software (GraphPad) using the following equation: Y=(Top−Bottom)/(1+10^((logIC50-X)−HillSlope))
Where X is the logarithm of the concentration and Y is the response. Y starts at the Bottom and goes to the Top with a sigmoid shape.
The experiments also evaluated the selectivity of the compounds for inhibiting growth of cancer cells carrying a mutation in the Flt3 gene. The MV411 cell line expresses the mutant allele of Flt3 with internal tandem duplications (ITD) of the gene. See Quentmeier et al., “FLT3 Mutations in Acute Myeloid Leukemia Cell Lines,” Leukemia 17(1), 2003, 120-124. […] See Grafone et al., “Monitoring of FLT3 Phosphorylation Status and Its Response to Drugs By Flow Cytometry in AML Blast Cells,” Hematol Oncol. 26(3), 2008, 159-166.

MV411 cell line = test: Cell viability assay ([…]-GLO), MV411; assay type: cell-based; conditions: for IC50: MV411 (ITD-FLT3+), 72 hours treatment; for FLT3-ITD+ Selectivity (K562/MV411): ratio K562/MV411
Protocol: Cell viability was measured by the […] -GlO® cell viability assay from Promega (Madison, Wis.). The […] -GlO Luminescent Cell Viability Assay is a homogeneous method to determine the number of viable cells in culture based on quantitation of the ATP present, which signals the presence of metabolically active cells. Following treatment, […] -GlO® is added to treatment wells and incubated at 37° C. Luminescence values were measured at using a Molecular Devices Spectramax microplate reader.

ROCK2, sequence (O75116 whole entry, species assumed): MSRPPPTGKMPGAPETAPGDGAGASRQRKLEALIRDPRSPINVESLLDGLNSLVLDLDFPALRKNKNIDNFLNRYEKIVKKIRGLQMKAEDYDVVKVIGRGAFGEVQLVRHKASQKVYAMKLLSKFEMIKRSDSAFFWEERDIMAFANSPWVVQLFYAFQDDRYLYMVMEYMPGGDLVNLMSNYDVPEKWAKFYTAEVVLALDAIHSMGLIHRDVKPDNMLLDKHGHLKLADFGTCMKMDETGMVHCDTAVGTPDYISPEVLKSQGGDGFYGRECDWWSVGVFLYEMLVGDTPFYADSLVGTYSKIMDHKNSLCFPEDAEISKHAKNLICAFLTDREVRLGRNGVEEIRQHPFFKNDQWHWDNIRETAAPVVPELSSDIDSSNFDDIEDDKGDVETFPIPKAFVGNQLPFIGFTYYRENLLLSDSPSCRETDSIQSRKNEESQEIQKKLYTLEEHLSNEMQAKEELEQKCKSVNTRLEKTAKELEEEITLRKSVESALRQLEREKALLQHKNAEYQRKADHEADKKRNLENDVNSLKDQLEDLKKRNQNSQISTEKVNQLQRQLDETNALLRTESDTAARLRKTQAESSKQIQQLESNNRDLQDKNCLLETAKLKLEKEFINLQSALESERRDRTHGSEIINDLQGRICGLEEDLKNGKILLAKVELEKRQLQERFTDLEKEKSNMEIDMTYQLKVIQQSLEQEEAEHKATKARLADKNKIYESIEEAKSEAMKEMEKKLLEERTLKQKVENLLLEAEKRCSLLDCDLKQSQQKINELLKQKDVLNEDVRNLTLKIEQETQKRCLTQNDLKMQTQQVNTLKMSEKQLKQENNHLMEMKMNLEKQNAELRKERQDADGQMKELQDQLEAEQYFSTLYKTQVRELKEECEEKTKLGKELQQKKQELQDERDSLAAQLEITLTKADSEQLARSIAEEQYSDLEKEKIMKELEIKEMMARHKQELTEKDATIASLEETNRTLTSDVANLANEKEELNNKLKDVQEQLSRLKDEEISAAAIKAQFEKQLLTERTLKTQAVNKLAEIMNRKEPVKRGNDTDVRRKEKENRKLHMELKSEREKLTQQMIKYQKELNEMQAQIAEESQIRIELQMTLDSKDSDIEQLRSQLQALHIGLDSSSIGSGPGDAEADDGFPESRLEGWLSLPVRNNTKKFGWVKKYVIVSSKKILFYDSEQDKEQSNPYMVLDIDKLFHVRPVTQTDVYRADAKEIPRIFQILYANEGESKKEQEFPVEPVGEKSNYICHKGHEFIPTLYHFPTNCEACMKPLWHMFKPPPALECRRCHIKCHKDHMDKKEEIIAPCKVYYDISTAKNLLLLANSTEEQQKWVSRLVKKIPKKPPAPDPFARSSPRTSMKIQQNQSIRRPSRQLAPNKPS

Compound | IC50 (ROCK2) [nM] | IC50 (K562 cell line; Homo sapiens) [nM] | IC50 (MV411 cell line; Homo sapiens, MV4-11) [nM] | IC50 (K562 cell line) [nM] | IC50 (MV411 cell line) [nM] | FLT3-ITD+ Selectivity (K562/MV411) (MV411 cell line)
C[C@@H](NC(=O)c1ccc(-c2ccncc2)cc1)c1cccc(C(=O)NCc2ccc(CN(C)C)cc2)c1 [Compound 39] | 0.3 | 9400 | 10 | – | – | 940
Cc1cc(-c2cn[nH]c2)ccc1C(=O)N[C@H](CO)c1cccc(C(=O)NC2CCCC2)c1 [Compound 96] | 53.1 | 101000 | 710 | – | – | 142
CN(C)CC1(NC(=O)c2cccc([C@@H](CO)NC(=O)c3ccc(-c4ccncc4)cc3)c2)CCCC1 [Compound 74] | 27.1 | 74000 | 9120 | – | – | 8
CN(C)CCc1ccc(NC(=O)c2cccc([C@@H](CO)NC(=O)c3ccc(-c4ccncc4)cc3)c2)cc1 [Compound 20] | 1.2 | 16000 | 10 | – | – | 1585
O=C(NC1CCCC1)c1cccc([C@@H](CO)NC(=O)c2ccc(-c3cn[nH]c3)cc2F)c1 [Compound 95] | 2.34 | 76000 | 890 | – | – | 86
O=C(NC1CCCC1)c1cccc([C@@H](CO)NC(=O)c2ccc(-c3ccncc3)cc2F)c1 [Compound 86] | 2.7 | > 100000 | 1700 | – | – | >58
COc1ccc(NC(=O)c2cccc([C@@H](CO)NC(=O)c3ccc(-c4ccncc4)cc3)c2)cn1 [Compound 93] | 0.51 | 85000 | 90 | – | – | 935
CN1CCc2ccc(NC(=O)c3cccc([C@@H](CO)NC(=O)c4ccc(-c5ccncc5)cc4)c3)cc2C1=O [Compound 27] | 0.39 | 25000 | 4400 | – | – | 6
CN(C)Cc1ccc(CNC(=O)c2cccc([C@@H](CO)NC(=O)c3ccc(-c4ccncc4)cn3)c2)cc1 [Compound 47] | 0.54 | 36000 | 100 | – | – | 360
CCOc1cc(-c2cn[nH]c2)ccc1C(=O)N[C@H](CO)c1cccc(C(=O)NC2CCCC2)c1 [Compound 101] | 0.25 | 15000 | 80 | – | – | 194
CN(C)Cc1cccc(NC(=O)c2cccc([C@@H](CO)NC(=O)c3ccc(-c4ccncc4)cc3)c2)c1 [Compound 14] | 1.6 | 48000 | 90 | – | – | 532
O=C(NC1CCCC1)c1cccc([C@@H](CO)NC(=O)c2cc(-c3ccncc3)n[nH]2)c1 [Compound 61] | 2.12 | > 100000 | 2500 | – | – | >40
CC(NC(=O)c1ccc(-c2ccncc2)cc1)c1cccc(OCC(=O)NC2CC2)c1 (stereo not drawn) [Compound 15] | 9 | > 100000 | 4000 | – | – | >25
CC(NC(=O)c1ccc(-c2ccncc2)cc1)c1cccc(OCC(=O)Nc2ccc3c(c2)CN(C)CC3)c1 (stereo not drawn) [Compound 16] | 3.6 | 30000 | 1500 | – | – | 20

Now from value to compound, other results behind:

IC50 (ROCK2) [nM] | IC50 (K562 cell line; Homo sapiens) [nM] | IC50 (MV411 cell line; Homo sapiens, MV4-11) [nM] | IC50 (K562 cell line) [nM] | IC50 (MV411 cell line) [nM] | Compound | FLT3-ITD+ Selectivity (K562/MV411) (MV411 cell line)
0.6 | 33000 | 90 | – | – | COc1ccc(CNC(=O)c2cccc([C@@H](CO)NC(=O)c3ccc(-c4ccncc4)cc3)c2)cc1 [Compound 85] | 368
0.63 | > 100000 | 90 | – | – | CN1CCC(C)(CNC(=O)c2cccc([C@@H](CO)NC(=O)c3ccc(-c4ccncc4)cc3)c2)CC1 [Compound 57] | >1122
1.01 | > 100000 | 440 | – | – | O=C(NC1CCC1)c1cccc([C@@H](CO)NC(=O)c2ccc(-c3ccncc3)cc2)c1 [Compound 48] | >230
0.72 | 66000 | 280 | – | – | O=C(NCC1CCCC1)c1cccc([C@@H](CO)NC(=O)c2ccc(-c3ccncc3)cc2)c1 [Compound 89] | 236
0.44 | > 100000 | 40 | – | – | O=C(NCC1CCN(C2CC2)CC1)c1cccc([C@@H](CO)NC(=O)c2ccc(-c3ccncc3)cc2)c1 [Compound 58] | >2525
0.31 | > 100000 | 90 | – | – | CC(C)N1CCC(CNC(=O)c2cccc([C@@H](CO)NC(=O)c3ccc(-c4ccncc4)cc3)c2)CC1 [Compound 56] | >1122
1.8 | > 100000 | 540 | – | – | O=C(NC1CC1)c1cccc([C@@H](CO)NC(=O)c2ccc(-c3ccncc3)cc2)c1 [Compound 12] | >187
0.6 | 36000 | 130 | – | – | O=C(NCC1CCC1)c1cccc([C@@H](CO)NC(=O)c2ccc(-c3ccncc3)cc2)c1 [Compound 66] | 279
0.3 | 56000 | 90 | – | – | CN1CCC(CNC(=O)c2cccc([C@@H](CO)NC(=O)c3ccc(-c4ccncc4)cc3)c2)CC1 [Compound 23] | 632
0.53 | > 100000 | 40 | – | – | CC(C)N1CCC(CNC(=O)c2cccc([C@@H](C)NC(=O)c3ccc(-c4ccncc4)cc3)c2)CC1 [Compound 60] | >2525
0.66 | > 100000 | 220 | – | – | O=C(NC1CCC(F)(F)CC1)c1cccc([C@@H](CO)NC(=O)c2ccc(-c3ccncc3)cc2)c1 [Compound 53] | >459
0.64 | – | – | > 100000 | 20 | COC(=O)N1CCC(NC(=O)c2cccc([C@@H](CO)NC(=O)c3ccc(-c4ccncc4)cc3)c2)CC1 [Compound 90] | >5050
0.54 | > 100000 | 70 | – | – | O=C(NC1CCN(C2CC2)CC1)c1cccc([C@@H](CO)NC(=O)c2ccc(-c3ccncc3)cc2)c1 [Compound 54] | >1443
0.7 | 52000 | 150 | – | – | O=C(NCC1(O)CCCCC1)c1cccc([C@@H](CO)NC(=O)c2ccc(-c3ccncc3)cc2)c1 [Compound 69] | 350
0.61 | > 100000 | 120 | – | – | CN(C)C1CCC(NC(=O)c2cccc([C@@H](CO)NC(=O)c3ccc(-c4ccncc4)cc3)c2)CC1 (stereo partly drawn) [Compound 52] | >842
0.57 | – | – | > 100000 | 30 | COC(=O)N1CCC(CNC(=O)c2cccc([C@@H](CO)NC(=O)c3ccc(-c4ccncc4)cc3)c2)CC1 [Compound 91] | >4040
9 | 34000 | 910 | – | – | CC1(NC(=O)c2cccc([C@@H](CO)NC(=O)c3ccc(-c4ccncc4)cc3)c2)CCC1 [Compound 71] | 37
2.85 | 65000 | 1030 | – | – | CC(C)NC(=O)c1cccc([C@@H](CO)NC(=O)c2ccc(-c3ccncc3)cc2)c1 [Compound 62] | 63
1.2 | 33000 | 270 | – | – | O=C(NCC1CC1)c1cccc([C@@H](CO)NC(=O)c2ccc(-c3ccncc3)cc2)c1 [Compound 84] | 123
